The results in this text go back to PubChem BioAssay (NCI).

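Where inhibition never reached the appropriate level, the endpoint shown equals the highest concentration tested. Otherwise, values were interpolated linearly from a five-concentration, 48-hour dose response in 96-well plates. The concentration for 50% growth inhibition is given as GI50. Definition used: TGI = concentration required for complete inhibition of growth.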 A value given as a limit tells only on which side of the number the result lay.

Common to all, as to assay: DTP human tumour cell line panel, 48 h
Experiment [1] concerns HT29 colon.
The subject of experiment [2] is NCI/ADR-RES ovarian.
Experiment [3] relates to UACC-257 melanoma.
In experiment [4] the test system is IGROV1 ovarian.
For experiment [5], the system named is SK-MEL-2 melanoma.
For experiment [6], the system named is LOX IMVI melanoma.
Experiment [7] deals with SF-295 CNS.
For experiment [8], the system named is SF-268 CNS.
Experiment [9] deals with CAKI-1 renal.
The subject of experiment [10] is KM12 colon.

As a reminder, the TGI is the concentration at which net growth stops. A lower TGI goes with greater sensitivity of the cells. As to `CCn1c(=N)sc2nc3ccccc3n2c1=O`, the TGI in experiment [1], in experiment [2], in [3], in experiment [4], in experiment [5] and in experiment [6] was above 100 µM each time. Besides, the TGI in experiment [7], in experiment [8], in [9] and in experiment [10] was above 100 µM each time.

Broadly, the GI50 is the concentration giving 50% growth inhibition. As for `COc1ccc2c(c1)O/C(=C\c1cccc(OCC(=O)Nc3nc(C)c(C)s3)c1)C2=O`, the GI50 in experiment [1] is 2.73 µM; in experiment [2] it was 21.3 µM; in [3], above 100 µM; in experiment [4] it was 0.152 µM; in experiment [5], 1.68 µM; in experiment [6], 0.189 µM. The GI50 in experiment [7] is 28.9 µM; in experiment [8], 0.638 µM; in experiment [9] it was 1.06 µM; in [10], 1.02 µM. The TGI was above 21 µM in experiment [1]; above 100 µM in experiment [2]; above 100 µM in experiment [3]; 0.316 µM in experiment [4]; 3.22 µM in experiment [5]; 0.351 µM in experiment [6]. Besides, the TGI in experiment [7] is above 100 µM; in experiment [8], 1.4 µM.

Turning to `Cc1cccc(Nc2cc(Cl)nc(SCC(=O)O)n2)c1C`, the TGI in experiment [1], in [2], in [3], in [4], in [5] and in experiment [6] was above 100 µM in each case. Besides, the TGI in [7], in experiment [9] and in experiment [10] was above 100 µM each time.

On to `CCN(CC)c1ccc2nc3ccc(N=Nc4ccc(O)cc4)cc3[n+](-c3ccccc3)c2c1`, for which the GI50 in experiment [1] was 3.15 µM; in experiment [2], above 100 µM; in experiment [3] it was 3.11 µM; in experiment [5], 2.65 µM; in experiment [6], 2.85 µM; in experiment [7] it was 2.86 µM. For the same molecule, the results for the GI50 in [8], in experiment [9] and in experiment [10] were 5 µM, 10.1 µM and 3.7 µM, respectively. The TGI in experiment [1] is above 100 µM; in experiment [2], above 100 µM; in [3], 9.78 µM; in experiment [5], above 100 µM; in experiment [6], 17.3 µM; in [7] it was above 100 µM. For the same molecule, the TGI was above 100 µM in experiment [8], above 100 µM in experiment [9] and 16.4 µM in [10].

On to `COc1cc(-c2cc3ncccc3c3[nH]c(=O)c4cccnc4c23)cc(OC)c1OC`, for which the GI50 in experiment [1] was 0.397 µM; in [2], 0.482 µM; in experiment [4], 3.61 µM; in experiment [5], 0.833 µM; in experiment [6], 0.511 µM; in [7] it was 0.379 µM. Further, the GI50 was 2.16 µM in experiment [8], 0.663 µM in experiment [9] and 0.651 µM in [10]. In addition, the TGI in experiment [1] was above 100 µM; in experiment [2], above 100 µM; in experiment [4] it was above 100 µM; in experiment [5], above 100 µM; in experiment [6], above 100 µM; in experiment [7], 25.4 µM. The TGI in experiment [8], in experiment [9] and in experiment [10] was above 100 µM in each case.

Consider `O=C1Nc2ccccc2/C1=C/c1cn(CC(O)Cn2cc(/C=C3\C(=O)Nc4ccccc43)c3ccccc32)c2ccccc12` (stereo not drawn), for which the GI50 in experiment [1] was 1.42 µM; in experiment [2] it was 12.1 µM; in experiment [3], 2.35 µM; in experiment [4], 0.477 µM; in experiment [5], 1.77 µM; in [6] it was 0.326 µM. The GI50 in experiment [7] was 1.66 µM; in experiment [8], 1.75 µM; in [9], 1.62 µM. Moreover, the concentration for total growth inhibition (TGI) is 3.52 µM in experiment [1]; 57.1 µM in [2]; 4.44 µM in experiment [3]; 1.9 µM in [4]; 3.49 µM in experiment [5]; 1.31 µM in experiment [6]. For the same molecule, the results for the TGI in [7], in experiment [8] and in experiment [9] were 3.28 µM, 3.92 µM and 3.39 µM, respectively.

`O=C(Oc1ccccc1)C(Br)C(Br)c1ccccc1` (stereo not drawn): the GI50 was 3.71 µM in [2]; 2.06 µM in [3]; 2 µM in experiment [4]; 16.1 µM in experiment [5]; 1.9 µM in [6]; 4.88 µM in experiment [7]. Moreover, the values for the GI50 in [8], in experiment [9] and in [10] were 4.15 µM, 1.65 µM and 1.93 µM, respectively. Moreover, the TGI in [2] was 19.9 µM; in experiment [3] it was 4.8 µM; in experiment [4], 3.96 µM; in experiment [5], 33.1 µM; in experiment [6], 4 µM; in experiment [7], 18.3 µM. For the same molecule, the TGI in experiment [8] was 15.2 µM; in experiment [9] it was 3.06 µM; in [10], 3.75 µM.

For the molecule `COc1cc2nc(-c3cccc4cccnc34)nc(NC3CCN(Cc4ccccc4)CC3)c2cc1OC`, the GI50 in [1] is 0.419 µM; in [2], 2.1 µM; in experiment [3], 2.07 µM; in experiment [4] it was 0.93 µM; in experiment [5], 1.68 µM; in experiment [7], 1.44 µM. Also, the values for the GI50 in experiment [8] and in experiment [9] were 1.14 µM and 1.37 µM, respectively. Besides, the TGI stood at 1.85 µM in [1]; 5.61 µM in experiment [2]; 4.1 µM in experiment [3]; 2.31 µM in [4]; 3.53 µM in experiment [5]; 3.09 µM in experiment [7]. The TGI in [8] and in experiment [9] was 2.98 µM throughout.

`Nc1nc2c(ccc3ccccc32)s1`: the GI50 was above 100 µM in experiment [1]; above 100 µM in experiment [2]; above 100 µM in [3]; above 100 µM in experiment [4]; 78.2 µM in [6]; above 100 µM in experiment [7]. For the same molecule, the figures for the GI50 in [8], in experiment [9] and in experiment [10] were 33.2 µM, 26.7 µM and above 100 µM, respectively. The TGI in experiment [1], in experiment [2], in experiment [3], in [4], in experiment [6] and in experiment [7] was above 100 µM throughout. In addition, the TGI was above 100 µM in experiment [8], 67.5 µM in experiment [9] and above 100 µM in experiment [10].
